Values of other authors as cited in article PMC7109127 (British Journal of Cancer, 2020).

Experiments:
HCC [1] = settings: first-line HCC; cited from earlier work
[2] = cited from earlier work
[3] = TIVO-1; cited from earlier work
[4] = first-line HCC; cited from earlier work
[5] = tested on: metastatic renal cell carcinoma; settings: TIVO-1; cited from earlier work
advanced HCC = tested on: advanced HCC; parameters: method as in PMID 18650514; settings: cited from earlier work
HCC [6] = tested on: HCC; parameters: method as in PMID 30665869, PMID 26095784; settings: selective VEGFR-2 inhibition; cited from earlier work

Row | Compound | ORR (RECIST 1.1) (HCC [1]) [%] | patients progression free at 6 months (HCC [1]) [%] | half-life [2] [h] | diarrhoea incidence [3] [%] | hypertension incidence [3] [%] | palmar–plantar erythrodysesthesia incidence [3] [%] | Fatigue, all grades [4] [%] | Fatigue, grade 3–4 [4] [%] | overall response rate (ORR) [5] [%] | progression-free survival (PFS) [5] [months] | objective responses (advanced HCC) [%] | objective responses in HCC (HCC [6])
1 | COc1cc2nccc(Oc3ccc(NC(=O)NC4CC4)c(Cl)c3)c2cc1C(N)=O [lenvatinib] | 18.8 | 55 | – | – | – | – | – | – | – | – | – | –
2 | CNC(=O)c1cc(Oc2ccc(NC(=O)Nc3ccc(Cl)c(C(F)(F)F)c3)cc2)ccn1 [sorafenib] | 6.5 | 35 | 25 to 48 | 33 | 34 | 54 | 25 | 4 | 23.3 | 9.1 | ≤ 2 | –
3 | ramucirumab | – | – | – | – | – | – | – | – | – | – | – | does not usually lead to objective responses
